Source: patent publication US12564622B2, “Preventing cytokine release syndrome” (priority 2017, dated 2026)
Where “and” joins values, the source holds several entries; their conditions need not be identical. Equal entries are not always repeated. Entries after “also recorded” stand apart in the source; their conditions may differ.

Assays:
[1] = system: Raji-bearing NSGS mice with high tumour burden treated with hCART19; test: hCART19 treatment of Raji-bearing NSGS mice, high tumour burden; format: in vivo, mouse (NSGS)
Source text: Six to eight-week old female NSG-SGM3 mice (NOD.Cg-Prkdcscid Il2rgtm1Wjl Tg(CMVIL3,CSF2,KITLG)1Eav/MloySzJ, Stock #013062) were purchased from the Jackson Laboratory. Raji cells were transfected with a luciferase construct via lentivirus to create Raji-luc cells as described elsewhere (Bai et al., 2015 Neuro Oncol., 17:545). Human CD19scFv-CD28-4-1BB-CD3ζ CART cells (PM-CAR1003, CART19) from Promab Biotechnologies were maintained for less than 7 days in AIM-V medium (GIBCO) supplemented with 300 IU/ml of hIL2 (Peprotech), 5% FBS and antibiotics. One day before the injection of Raji cells, mice were irradiated at a dose of 2 Gy in a CIXD Xstahl device. One million Raji-luc cells were injected IV via tail vein on day zero. Six days later, tumor loads were assessed using a Xenogen instrument and 15×10^6 CART19 cells were injected IV. Metyrosine was injected IP at 60 mg/kg/day for three days before the CART19 injection. On the day of CART19 injection, a fourth dose of 60 mg/kg was given IP and the mice were subsequently injected four more times at daily intervals at 30 mg/kg.
Six to eight weeks old female NSG-SGM3 (NSGS) mice (NOD.Cg-Prkdcscid Il2rgtm1WjlTg (CMV-IL3, CSF2, KITLG) 1Eav/MloySzJ, Stock #013062) were purchased from the Jackson Laboratory. Raji cells were transfected with a luciferase construct via lentivirus to create Raji-luc cells. NSGS is a triple transgenic strain expressing human IL3, GM-CSF and SCF combine the features of the highly immunodeficient NOD scid gamma (NSG) mouse. One day before the injection of Raji cells, mice were irradiated at a dose of 2 Gy in a CIXD Xstahl device. In high tumor burden experiments in FIG. 5, 10^6 Raji-luc cells were injected IV via tail vein. Six days later, tumor loads were assessed using a Xenogen instrument and 15×10^6 hCART19 cells or untransduced T-cells were injected IV. In low tumor burden experiments in FIG. 6, 2×10^5 Raji-luc cells were injected IV via tail vein. Four days later, tumor loads were assessed using a Xenogen instrument and 15×10^6 hCART19 cells were injected IV. Metyrosine was injected IP at 60 mg/kg/day for three days before the hCART19 injection. On the day of CART19 injection, a fourth dose of 60 mg/kg was given IP and the mice were subsequently injected four more times at daily intervals at 30 mg/kg.

LPS-injected BALB/c mice = format: in vivo, mouse (BALB/c)
Protocol: LPS from Escherichia coli 0111:B4 was formulated as a 10 mg/ml solution in water and stored in −80° C. LPS was injected intraperitoneally at a dose of 3.5 mg/kg. […] Human ANP (Sigma) was dissolved in saline, loaded in mini-osmotic pumps (ALZET) with a release rate of 12 μg/day and implanted subcutaneously in the back of mice 12 hours before the LPS injection. Mice implanted with pumps loaded with saline served as controls. […] […] The control groups were injected with PBS. […] Hydration of mice was supported by daily subcutaneous injection of 0.5 ml saline.
LPS from Escherichia coli 0111:B4 was formulated as a 10 mg/ml solution in water and stored in −80° C. In Balb/C mice, LPS was injected intraperitoneally at a lethal dose of 3.5 mg/kg. […] In experiments with catecholamine pumps, a sublethal dose with 15-35% death rate was optimized in Balb/C mice. In TH+/+ and TH^ΔLysM mice with C57BL/6 background, a lethal dose was optimized at 5 mg/kg. Human ANP (Sigma) was dissolved in saline, loaded in mini-osmotic pumps (ALZET) with a release rate of 12 μg/day and implanted subcutaneously in the back of mice 12 hours before the LPS injection. Mice implanted with pumps loaded with saline served as controls. Metyrosine was freshly dissolved in PBS and injected IP at the indicated doses for three days prior to the LPS treatment. One hour before the LPS injection, metyrosine was injected into the lower abdomen contralateral to the side of LPS injection. The control groups were injected with PBS. For the following 3 days, metyrosine was injected IP at reduced indicated doses. Hydration of mice was supported by daily subcutaneous injection of 0.5 ml saline.

[2] = 24 and 72 hours after hCART19, metyrosine pre-treatment

C[C@](N)(Cc1ccc(O)cc1)C(=O)O [metyrosine, α-methyl-tyrosine]
circulating catecholamines [1, 2]: significantly reduced; also recorded: significantly lower | circulating human and mouse cytokines [1, 2]: significantly reduced; also recorded: significantly lowered | circulating catecholamines ([1]; 24 and 72 hours after hCART19, metyrosine pre-treatment, listed as Metyrosine): able to block that effect | final outcome ([1]; high tumour burden, hCART19 plus metyrosine): eventually died with progressive lymphoma | plasma dopamine ([1]; two time points after CART19 treatment): able to reduce dopamine production | levels of catecholamines (LPS-injected BALB/c mice; LPS, metyrosine pre-treatment): substantially reduced | levels of inflammatory cytokines (LPS-injected BALB/c mice; LPS, metyrosine pre-treatment): substantially reduced | mice surviving (LPS-injected BALB/c mice; lethal dose LPS IP, metyrosine pre-treatment): ~70% and ~75% | efficacy at 20 mg/kg (LPS-injected BALB/c mice; lethal dose LPS, metyrosine 20 mg/kg): ineffective | dependence of efficacy on dose (LPS-injected BALB/c mice; lethal dose LPS, metyrosine 20, 30, 40 mg/kg): dose-dependent
